Test results taken from patent US11338004B2, “Composition for preventing or treating cranial nerve disease comprising fomes fomentarius extract, fraction thereof, or compound isolated therefrom as active ingredient” (priority 2015, dated 2022).

Legend:
IL-1β = IL-1β in LPS-treated BV2 cells; type: cell-based, mouse; design: unit not given here
Protocol: (§1) A mouse BV2 cell line was stored and maintained in a humidified incubator at 37° C. under a 5% CO2 condition using a DMEM culture medium supplemented with 10% FBS, 100 U/ml of penicillin and 100 μg/ml of streptomycin, was trypsinized, and was subcultured.
(§2) BV2 cells were placed in a 6-well plate at 7.5×10^5 cells/well, and stabilized at 37° C. and 5.0% CO2 for 12 hours. After that, LPS and the Fomes fomentarius CHCl3 fractions, the nonadecanone (2-Nonadecanone) or the docosenol (cis-13-Docosenol) compounds were placed according to groups and were incubated for 1 hour. The cell culture was collected and used for cytokine analysis. All the cell culture was removed, and then 1 ml of dPBS was dispensed to each well to wash and remove the wells. 200 μl of the lysis buffer was dispensed per well and the cells attached to the bottom of the well were removed with a cell scriper, and then were slowly mixed and reacted for […] on ice at 4° C. The cells were removed with a scriper again and all the lysis solution was collected. The collected lysis solution was centrifuged at 15,000 rpm for 15 minutes at 4° C. so that only the supernatant was collected. In order to plot standard curves for protein quantification, a standard BSA solution ([…]) and a dilution were prepared in which bradford solution and D.W. were diluted with 4:1. After the bradford dilution was dispensed in each 200 μl to 96-well, the standard BSA solution and the cell lysis supernatant were dispersed in a volume of 10 μl per well, and then they were mixed by pipetting. After 10 minutes, the protein was quantitated by measuring the absorbance at 595 nm in a reader. The subsequent procedures were carried out in the same manner as in the quantitative analysis of the protein of Example 3-3.

AChE = AChE (Homo sapiens, UniProt P22303); experiment: Acetylcholinesterase inhibitory activity; type: biochemical; conditions: read-out: acetylcholinesterase inhibitory activity (%)
Protocol: AChE and acetylthocholine iodine (ATC) were dissolved in 100 mM phosphate buffer (pH 8.0) to prepare 0.25 U/mL and 75 mM, respectively. […] 2.8 mL of phosphate buffer (100 mM, pH 8.0), 30 μL of AChE (0.25 U/mL), and 100 μL of DTNB were added to 30 μL of the extract, and were mixed. Then, the mixture was preincubated at 37° C. for 10 minutes. Then, 30 μL of substrate ATC was added thereto and was reacted at 37° C. for 3 minutes, and then the absorbance was measured at 412 nm. As a control group, 30 μL of 100 mM phosphate buffer (pH 8.0) was added instead of the extract, and then was measured.

IL-6 = IL-6 in LPS-treated BV2 cells; type: cell-based, mouse; design: unit not given here
Protocol: as §1, §2

[1] = test system: NO production in mouse BV2 cell line; experiment: NO (nitrite) production in LPS-treated BV2 cells, Griess reagent; type: cell-based
Protocol: as §1
In the present disclosure, the amount of nitrite produced was measured to determine the anti-inflammatory activity of the Fomes fomentarius fraction. Nitrite is a major stable product of nitric oxide (NO), one of the inflammatory mediators, and was measured by using Griess reagent.
First, the cells were cultured at 5×10^5 cells/ml in a 6-well plate. They were treated with Fomes fomentarius extracts having various concentrations (5, 20, 50, and 100 μg/ml) and then reacted for 24 hours in the presence or absence of LPS ([…]). DMEM medium for BV2 cells and the fresh medium containing LPS (1 μg/ml) and the sample were treated at the same time and cultured for 24 hours. The amount of NO produced was determined using Griess reagent in which 100 μl of cell culture supernatant and 100 μl of Griess reagent [1% (w/v) sulfanilamide, 0.1% (w/v) naphthyl ethylenediamine in 2.5% (v/v) phosphoric acid] were mixed and reacted on a 96-well plate for 10 minutes, and then an ELISA reader was used to measure absorbance at 540 nm. Standard concentration curves were obtained by stepwise dilution of sodium nitrite (NaNO2).

xanthine oxidase = xanthine oxidase (Homo sapiens, UniProt P47989); experiment: Xanthine oxidase inhibitory activity; type: biochemical; conditions: for inhibition at 10 µg/mL: 10 μg/mL; for inhibition at 20 µg/mL: 20 μg/mL; for inhibition at 40 µg/mL: 40 μg/mL; for inhibition at 80 µg/mL: 80 μg/mL; for inhibition at 160 µg/mL: 160 μg/mL; for inhibition at 320 µg/mL: 320 μg/mL; for inhibition at 640 µg/mL: 640 μg/mL
Protocol: 0.2 ml of the substrate solution in which 2 mM xanthine was dissolved was added to 0.1 ml of a sample solution and 0.6 ml of 0.1 M potassium phosphate buffer at pH 7.5, and 0.1 ml of 0.2 unit/ml xanthine oxidase was added thereto, followed by reaction at 37° C. for 5 minutes. Then, 1 ml of 1N HCl was added to terminate the reaction, and then the absorbance of the uric acid produced in the reaction solution was measured at 292 nm. The inhibitory activity of xanthine oxidase was shown by the absorbance reduction rate of the addition group and the non-addition group of the sample solution.
Xanthine oxidase acts as a rate-limiting enzyme in the terminal oxidation of all purines and is an enzyme that acts as a source of oxidizing agents such as superoxide radicals and hydrogen peroxide. The superoxide anion inhibition by xanthine/xanthine oxidase enzymes is shown by superoxide anion scavenging activity and xanthine oxidase inhibition and has biologically important meaning through inhibition of gout and formation of free radicals. The superoxide radical scavenging effects of 10, 20, 40, 80, 160, 320, and 640 μg mL-1 of each fraction extract of the Fomes fomentarius were compared using butylated hydroxy anisole (BHA) as a positive control group.
The superoxide radical scavenging effects of 10, 20, 40, 80, 160, 320, and 640 μg mL-1 of the Acer tegmentosum maxim extract were compared using butylated hydroxy anisole (BHA) as a positive control group.
The superoxide radical scavenging effects of 10, 20, 40, 80, 160, 320, and 640 μg mL-1 of the berchemia berchemiaefolia extract were compared using butylated hydroxy anisole (BHA) as a positive control group.
The superoxide radical scavenging effects of 10, 20, 40, 80, 160, 320, and 640 μg mL-1 of the Lithospermum erythrorhizon extract were compared using butylated hydroxy anisole (BHA) as a positive control group.

TNF-α = TNF-α in LPS-treated BV2 cells; type: cell-based, mouse; design: unit not given here
Protocol: as §1, §2

NF-κB = experiment: Western blotting of LPS-induced NF-κB phosphorylation in BV2 cells; type: cell-based, mouse
Protocol: as §2

Chain of xanthine oxidase (P47989 whole entry, species assumed): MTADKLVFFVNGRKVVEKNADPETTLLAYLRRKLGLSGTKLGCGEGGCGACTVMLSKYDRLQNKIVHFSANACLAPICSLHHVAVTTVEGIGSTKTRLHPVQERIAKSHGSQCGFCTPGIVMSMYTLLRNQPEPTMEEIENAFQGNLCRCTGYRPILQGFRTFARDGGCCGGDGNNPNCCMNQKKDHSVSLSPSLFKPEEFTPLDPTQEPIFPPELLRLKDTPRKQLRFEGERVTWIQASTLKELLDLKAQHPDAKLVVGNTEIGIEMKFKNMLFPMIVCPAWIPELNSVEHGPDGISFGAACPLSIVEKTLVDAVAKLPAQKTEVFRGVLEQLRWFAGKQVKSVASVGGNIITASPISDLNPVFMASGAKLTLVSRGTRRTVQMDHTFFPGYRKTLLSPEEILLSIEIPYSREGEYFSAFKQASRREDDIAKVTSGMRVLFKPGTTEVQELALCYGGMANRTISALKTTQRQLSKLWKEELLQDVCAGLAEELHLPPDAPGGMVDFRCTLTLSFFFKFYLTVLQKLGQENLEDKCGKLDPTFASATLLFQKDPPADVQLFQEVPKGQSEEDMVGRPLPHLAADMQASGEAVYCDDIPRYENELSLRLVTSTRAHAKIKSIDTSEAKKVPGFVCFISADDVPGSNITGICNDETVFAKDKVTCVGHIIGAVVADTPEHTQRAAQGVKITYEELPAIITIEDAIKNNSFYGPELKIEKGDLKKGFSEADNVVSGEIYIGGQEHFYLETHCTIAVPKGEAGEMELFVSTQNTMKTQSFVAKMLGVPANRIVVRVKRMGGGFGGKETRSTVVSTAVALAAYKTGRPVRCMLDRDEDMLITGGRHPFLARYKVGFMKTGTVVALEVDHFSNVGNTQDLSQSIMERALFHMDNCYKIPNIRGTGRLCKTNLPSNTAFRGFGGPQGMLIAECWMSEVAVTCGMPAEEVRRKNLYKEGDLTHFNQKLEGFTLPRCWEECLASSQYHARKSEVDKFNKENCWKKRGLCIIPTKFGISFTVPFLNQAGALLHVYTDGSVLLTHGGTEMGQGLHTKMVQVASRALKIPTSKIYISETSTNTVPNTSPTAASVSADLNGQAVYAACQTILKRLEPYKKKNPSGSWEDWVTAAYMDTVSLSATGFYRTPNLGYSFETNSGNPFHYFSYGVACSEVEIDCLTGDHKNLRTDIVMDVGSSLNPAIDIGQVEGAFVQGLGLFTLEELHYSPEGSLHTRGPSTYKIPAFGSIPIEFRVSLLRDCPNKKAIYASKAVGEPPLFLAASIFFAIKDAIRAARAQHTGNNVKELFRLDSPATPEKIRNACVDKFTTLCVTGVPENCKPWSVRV
Chain of AChE (P22303 32-614): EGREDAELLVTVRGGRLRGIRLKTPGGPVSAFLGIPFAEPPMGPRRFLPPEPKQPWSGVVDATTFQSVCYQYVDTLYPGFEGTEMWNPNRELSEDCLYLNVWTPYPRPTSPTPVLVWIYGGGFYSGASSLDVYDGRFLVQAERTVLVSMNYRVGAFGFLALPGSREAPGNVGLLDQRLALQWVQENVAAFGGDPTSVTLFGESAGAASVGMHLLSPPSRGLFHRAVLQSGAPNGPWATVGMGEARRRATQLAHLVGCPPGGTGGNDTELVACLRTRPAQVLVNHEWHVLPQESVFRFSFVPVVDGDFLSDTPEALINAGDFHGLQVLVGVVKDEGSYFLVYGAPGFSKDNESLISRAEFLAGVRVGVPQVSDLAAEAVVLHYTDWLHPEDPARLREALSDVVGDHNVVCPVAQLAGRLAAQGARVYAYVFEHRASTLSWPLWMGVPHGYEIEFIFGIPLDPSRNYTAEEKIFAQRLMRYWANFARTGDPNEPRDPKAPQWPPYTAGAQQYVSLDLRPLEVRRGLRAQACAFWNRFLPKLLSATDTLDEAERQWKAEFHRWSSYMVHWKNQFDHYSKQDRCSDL

SMILES	IL-1β level (IL-1β; 5 μg/ml)	IL-1β level (IL-1β; 20 μg/ml)	IL-1β level (IL-1β; 50 μg/ml)	IL-1β level (IL-1β; 100 μg/ml)	inhibition at 10 µg/mL (AChE) [%]	inhibition at 20 µg/mL (AChE) [%]	inhibition at 40 µg/mL (AChE) [%]	inhibition at 80 µg/mL (AChE) [%]	inhibition at 160 µg/mL (AChE) [%]	inhibition at 320 µg/mL (AChE) [%]	inhibition at 640 µg/mL (AChE) [%]	IL-6 level (IL-6; 5 μg/ml)	IL-6 level (IL-6; 20 μg/ml)	IL-6 level (IL-6; 50 μg/ml)	IL-6 level (IL-6; 100 μg/ml)	NO production (nitrite) ([1]; 5 μg/ml)	NO production (nitrite) ([1]; 20 μg/ml)	NO production (nitrite) ([1]; 50 μg/ml)	NO production (nitrite) ([1]; 100 μg/ml)	inhibition at 10 µg/mL (xanthine oxidase) [%]	further results
CCCCCCCC/C=C\CCCCCCCCCCCCO [docosenol, cis-13-Docosenol]	65.15±7.6	59.12±6.1	50.55±4.2	48.19±5.8	18.1 ± 2.6	23.1 ± 3.8	28.4 ± 1.9	35.9 ± 5.1	40.9 ± 6.8	55.1 ± 4.9	59.6 ± 6.6	301.56±7.6	249.35±10.1	171.68±5.5	138.51±6.8	8.04±0.55	5.56±0.61	4.42±0.48	2.76±40.59	0.9 ± 0.3	inhibition at 20 µg/mL (xanthine oxidase): 2.5 ± 0.5%; inhibition at 40 µg/mL (xanthine oxidase): 3.6 ± 0.7%; inhibition at 80 µg/mL (xanthine oxidase): 5.8 ± 1.1%; inhibition at 160 µg/mL (xanthine oxidase): 7.7 ± 0.9%; inhibition at 320 µg/mL (xanthine oxidase): 9.6 ± 0.8%; inhibition at 640 µg/mL (xanthine oxidase): 11.8 ± 1.4%; TNF-α level (TNF-α; 5 μg/ml): 60.12±7.4; TNF-α level (TNF-α; 20 μg/ml): 40.58±6.2; TNF-α level (TNF-α; 50 μg/ml): 28.15±4.1; TNF-α level (TNF-α; 100 μg/ml): 22.87±5.6; p-NF-κB/NF-κB ratio (%), expression ratio (vehicle 100%) (NF-κB; 5 μg/ml): about 41%; p-NF-κB/NF-κB ratio (%), expression ratio (vehicle 100%) (NF-κB; 20 μg/ml): about 28%; p-NF-κB/NF-κB ratio (%), expression ratio (vehicle 100%) (NF-κB; 50 μg/ml): about 8%
CCCCCCCCCCCCCCCCCC(C)=O [nonadecanone, 2-Nonadecanone]	70.12±4.8	65.56±5.1	58.11±6.5	43.66±3.4	11.6 ± 1.1	18.9 ± 0.9	23.4 ± 2.8	30.1 ± 1.8	35.1 ± 3.1	41.5 ± 2.2	41.9 ± 3.8	451.25±6.9	441.61±7.1	389.64±10.1	351.85±8.7	2.98±0.78	2.35±0.68	1.99±0.39	1.62±0.41	4.1 ± 0.5	inhibition at 20 µg/mL (xanthine oxidase): 6.9 ± 0.8%; inhibition at 40 µg/mL (xanthine oxidase): 12.3 ± 1.1%; inhibition at 80 µg/mL (xanthine oxidase): 20.5 ± 0.9%; inhibition at 160 µg/mL (xanthine oxidase): 21.6 ± 0.7%; inhibition at 320 µg/mL (xanthine oxidase): 24.6 ± 1.1%; inhibition at 640 µg/mL (xanthine oxidase): 30.8 ± 1.4%; TNF-α level (TNF-α; 5 μg/ml): 79.12±4.1; TNF-α level (TNF-α; 20 μg/ml): 70.24±5.0; TNF-α level (TNF-α; 50 μg/ml): 59.56±6.2; TNF-α level (TNF-α; 100 μg/ml): 50.47±3.1; p-NF-κB/NF-κB ratio (%), expression ratio (vehicle 100%) (NF-κB; 5 μg/ml): about 35%; p-NF-κB/NF-κB ratio (%), expression ratio (vehicle 100%) (NF-κB; 20 μg/ml): about 21%; p-NF-κB/NF-κB ratio (%), expression ratio (vehicle 100%) (NF-κB; 50 μg/ml): about 15%; p-NF-κB/NF-κB ratio (%), expression ratio (vehicle 100%) (NF-κB; 100 μg/ml): about 12%
